Source: patent publication US5789431A, “Naphthoquinone antitumor compound and method” (The University of North Carolina at Chapel Hill, priority 1996, dated 1998)

Assays:
human tumor cell lines = assay type: cell-based; conditions: Homo sapiens; cancer cell panel, general / most cell lines; read-out: logGI50 values in the cancer cell line panel (converted)
MALME-3M = assay: in vitro melanoma cell growth inhibition (NCI screen)
SK-MEL-5 = assay: as above
HCT-15 = assay: in vitro colon cancer cell growth inhibition (NCI screen)
K-562 = assay: in vitro leukemia cell growth inhibition (NCI screen)
HT 29 = assay: in vitro colon cancer cell growth inhibition (NCI screen)
UACC-62 = assay: in vitro melanoma cell growth inhibition (NCI screen)
IGROV1 = assay: in vitro ovarian cancer cell growth inhibition (NCI screen)
OVCAR-4 = assay: as above; conditions: OVACR-4
T-47D = assay: in vitro breast cancer cell growth inhibition (NCI screen)
CCRF-CEM = assay: in vitro leukemia cell growth inhibition (NCI screen)
OVCAR-3 = assay: in vitro ovarian cancer cell growth inhibition (NCI screen)
NCI-H522 = assay: in vitro non-small cell lung cancer cell growth inhibition (NCI screen)
SK-OV-3 = assay: in vitro ovarian cancer cell growth inhibition (NCI screen)
RPMI-8226 = assay: in vitro leukemia cell growth inhibition (NCI screen)
HCC-2998 = assay: in vitro colon cancer cell growth inhibition (NCI screen)
MCF7/ADR-RES = assay: in vitro breast cancer cell growth inhibition (NCI screen)
MDA-N = assay: as above
MOLT-4 = assay: in vitro leukemia cell growth inhibition (NCI screen)
UACC-257 = assay: in vitro melanoma cell growth inhibition (NCI screen)
MDA-MB-435 = assay: in vitro breast cancer cell growth inhibition (NCI screen)
BT-549 = assay: as above
RXF-393 = assay: in vitro renal cancer cell growth inhibition (NCI screen)
TK-10 = assay: as above
HCT-116 = assay: in vitro colon cancer cell growth inhibition (NCI screen)
MCF-7 = assay: in vitro breast cancer cell growth inhibition (NCI screen)
PC-3 = assay: in vitro prostate cancer cell growth inhibition (NCI screen)
COLO-205 = assay: in vitro colon cancer cell growth inhibition (NCI screen)
NCI-H266 = assay: in vitro non-small cell lung cancer cell growth inhibition (NCI screen)
NCI-H23 = assay: as above
ACHN = assay: in vitro renal cancer cell growth inhibition (NCI screen)
SW 620 = assay: in vitro colon cancer cell growth inhibition (NCI screen)
HOP-92 = assay: in vitro non-small cell lung cancer cell growth inhibition (NCI screen)
M19-MEL = assay: in vitro melanoma cell growth inhibition (NCI screen)
LOX1MVI = assay: as above
HL-60(TB) = assay: in vitro leukemia cell growth inhibition (NCI screen)
U 251 = assay: in vitro CNS cancer cell growth inhibition (NCI screen)
SF-539 = assay: as above
SN12C = assay: in vitro renal cancer cell growth inhibition (NCI screen)
NCI-H460 = assay: in vitro non-small cell lung cancer cell growth inhibition (NCI screen)
XF-498 = assay: in vitro CNS cancer cell growth inhibition (NCI screen)
SR = assay: in vitro leukemia cell growth inhibition (NCI screen)
UO-31 = assay: in vitro renal cancer cell growth inhibition (NCI screen)
SNB-75 = assay: in vitro CNS cancer cell growth inhibition (NCI screen)

SMILES	GI50 (human tumor cell lines)	cytotoxicity log GI50 (MALME-3M)	cytotoxicity log GI50 (SK-MEL-5)	cytotoxicity log GI50 (HCT-15)	cytotoxicity log GI50 (K-562)	cytotoxicity log GI50 (HT 29)	cytotoxicity log GI50 (UACC-62)	cytotoxicity log GI50 (IGROV1)	cytotoxicity log GI50 (OVCAR-4)	cytotoxicity log GI50 (T-47D)	cytotoxicity log GI50 (OVCAR-3)	cytotoxicity log GI50 (NCI-H522)	cytotoxicity log GI50 (MCF7/ADR-RES)	cytotoxicity log GI50 (MDA-N)	cytotoxicity log GI50 (MOLT-4)	cytotoxicity log GI50 (UACC-257)	cytotoxicity log GI50 (MDA-MB-435)	cytotoxicity log GI50 (HCT-116)	cytotoxicity log GI50 (COLO-205)	cytotoxicity log GI50 (NCI-H23)	further results
CCCc1nc2c(n1CC)C(=O)c1ccccc1C2=O [Compound 24]	~10 µM	-4.65 M	-4.53 M	-4.55 M	-4.51 M	-4.73 M	-4.59 M	-4.57 M	-4.49 M	-4.55 M	-4.49 M	-4.62 M	-4.58 M	-4.70 M	-4.77 M	-4.74 M	-4.76 M	–	–	–	cytotoxicity log GI50 (CCRF-CEM): -4.61 M; cytotoxicity log GI50 (SK-OV-3): -4.66 M; cytotoxicity log GI50 (RPMI-8226): -4.50 M; cytotoxicity log GI50 (HCC-2998): -4.51 M
O=C(NC1=C(Cl)C(=O)c2ccccc2C1=O)c1ccccc1 [Compound 2e, 2-Benzoylamino-3-chloro-1,4-naphthoquinone]	10 to 100 µM	-4.77 M	–	-4.60 M	-4.66 M	–	-4.62 M	-4.66 M	–	-4.66 M	-4.72 M	-4.62 M	-4.73 M	-5.30 M	-4.70 M	–	-4.72 M	-4.76 M	-4.81 M	-4.62 M	cytotoxicity log GI50 (BT-549): -4.70 M; cytotoxicity log GI50 (RXF-393): -4.72 M; cytotoxicity log GI50 (TK-10): -4.64 M; cytotoxicity log GI50 (MCF-7): -4.72 M; cytotoxicity log GI50 (PC-3): -4.60 M; cytotoxicity log GI50 (NCI-H266): -4.61 M; cytotoxicity log GI50 (ACHN): -4.68 M; cytotoxicity log GI50 (SW 620): -4.76 M; cytotoxicity log GI50 (HOP-92): -4.60 M
CC(=O)NC1=C(NCCN(C)C)C(=O)c2ccccc2C1=O [Compound 39]	–	-5.12 M	-5.14 M	-5.02 M	-4.91 M	–	-4.98 M	–	-5.05 M	–	–	-4.99 M	–	–	–	-5.03 M	–	-5.08 M	-5.00 M	-4.94 M	cytotoxicity log GI50 (M19-MEL): -5.12 M; cytotoxicity log GI50 (LOX1MVI): -4.90 M; cytotoxicity log GI50 (HL-60(TB)): -5.01 M; cytotoxicity log GI50 (U 251): -4.99 M; cytotoxicity log GI50 (SF-539): -4.93 M; cytotoxicity log GI50 (SN12C): -4.98 M; cytotoxicity log GI50 (NCI-H460): -4.89 M
Cc1nc2c(n1C(C)(C)C)C(=O)c1ccccc1C2=O [Compound 8]	–	-4.35 M	-4.41 M	–	-4.30 M	-4.36 M	-4.35 M	–	–	–	-4.41 M	-4.36 M	–	–	-4.31 M	-4.37 M	–	–	–	-4.42 M	cytotoxicity log GI50 (M19-MEL): -4.61 M; cytotoxicity log GI50 (XF-498): -4.36 M; cytotoxicity log GI50 (SR): -4.35 M; cytotoxicity log GI50 (UO-31): -4.43 M; cytotoxicity log GI50 (LOX1MVI): -4.38 M; cytotoxicity log GI50 (HL-60(TB)): -4.34 M; cytotoxicity log GI50 (SN12C): -4.30 M; cytotoxicity log GI50 (NCI-H460): -4.44 M; cytotoxicity log GI50 (SNB-75): -4.50 M; cytotoxicity log GI50 (ACHN): -4.31 M; cytotoxicity log GI50 (HOP-92): -5.03 M
